{"source": "patent US7615210B2", "about": "“Treatment of endometriosis” (Medical Research Council, priority 2003, dated 2009)", "system": "PK1 expression in endometrial tissue", "assay": "PK1 expression in endometrial tissue incubated with progesterone, Taqman quantitative RT-PCR", "assay_type": "cell-based, human", "conditions": "endometrial tissue (n=5), 1 μM progesterone, 24 hours, control ethanol; mean ± SEM; p<0.05", "procedure": "RNA was extracted from endometrial biopsies obtained from across the menstrual cycle (n=35) using Tri Reagent (Sigma, Poole, UK) following the Manufacturer's instructions. RNA samples were quantified and were reverse transcribed using 5.5 mmol 1^−1 MgCl2, 0.5 mmol 1^−1 of each deoxynucleotide triphosphate (dNTP), 2.5 μmol 1^−1 random hexamers, ribonuclease inhibitor (0.4 U μl^−1) and 1.25 U μl^−1 Multiscribe reverse transcriptase (all from Applied Biosystems, Warrington, UK). RNA (400 ng) was added to each reverse transcription reaction and samples were incubated for 90 minutes at 25° C., 45 minutes at 48° C. and 5 minutes at 95° C. The reaction mix for the polymerase chain reaction (PCR) consisted of 1× mastermix, ribosomal 18S forward and reverse primers, Ribosomal 18S probe (50 nmol 1^−1; all from Applied Biosystems, Warrington, UK), forward and reverse primers for PK1, PK2, PKR1 and PKR2 (300 nmol 1^−1) and their probes (200 nmol 1^−1) (all from Biosource UK, Nivelles, Belgium). The reaction mix (48 μl) was aliquoted into tubes and 2 μl cDNA was added. Duplicate 24 μl samples plus positive and negative controls were placed in a PCR plate and wells were sealed with optical caps. […] Data were analysed and processed using Sequence Detector version 1.6.3 (Applied Biosystems, Warrington, UK) according to manufacturer's instructions. […]", "note": "Several values for one entry are separate records, joined by “and”; a condition that tells them apart may be missing. Identical values can stand only once."}
{"smiles": "CC(=O)[C@H]1CC[C@H]2[C@@H]3CCC4=CC(=O)CC[C@]4(C)[C@H]3CC[C@]12C", "note": "[progesterone]", "values": [{"measurement": "fold increase in PK1 expression compared with controls", "result": "2.91 fold and 2.91(±0.75) fold"}]}
